# Reference: US9611276B2, “Imidazo bicyclic iminium compounds as antitumor agents” (THE BOARD OF TRUSTEES OF THE LELAND STANFORD JUNIOR …, priority 2012, dated 2017)
# Tests used:
# Assay type in all cases: cell-based
# Gli3 = experiment: Hh ligand-dependent Gli3 processing in Shh-EGFP cells
# Description: Each compound or vehicle treatment was conducted in the presence or absence of 10% (v/v) Shh-N-conditioned medium. The cells were then lysed by incubation with SDS-PAGE loading buffer composed of 50 mM Tris-HCl, pH 6.8, 2% (w/v) SDS, 8% (v/v) glycerol, 100 mM DTT, 0.1 mg/mL bromophenol blue, EDTA-free protease inhibitor cocktail (Roche) and Phosstop (Roche) for 5 min in a cold room. […] The membranes were dehydrated with methanol and probed overnight at 4° C. with goat polyclonal anti-Gli3 antibody (1 μg/mL; R & D Systems, AF3690) in PBS containing 4% (w/v) non-fat dry milk and 0.01% (v/v) Tween-20 (immunoblot blocking buffer). […] Band intensities of Gli3FL and Gli3R were quantified using ImageJ64 software (NIH), and three independent experiments were used to determine the average Gli3FL/Gli3R ratio for each compound.
# [1] = tested on: Hh pathway-dependent osteoblast differentiation; experiment: C3H10T(1/2) cell assay, alkaline phosphatase
# Description: C3H10T(1/2) cells were obtained from ATCC and cultured in DMEM (Invitrogen, 11965) containing 10% (v/v) fetal bovine serum (Invitrogen, No. 26140), and 1× PenStrep (Gibco, 15140).
# (§1) All test compounds were dissolved in DMSO at 50 mM, serially diluted by 1:3, 1:4 or 1:5 in a 96-well translucent microplate (Greiner bio-one, 650201) and stored at −20° C. These serial dilutions were added to assay media freshly with final DMSO concentration of 0.2% (v/v).
# The C3H10T(1/2) cell assay provides a measure of Hh pathway-dependent osteoblast differentiation. C3H10T(1/2) cells were seeded into a 96-well plate (20,000 cells/well), cultured for 30 hrs and then incubated with test compounds in DMEM (Invitrogen, 11965) containing 0.5% (v/v) fetal bovine serum (Invitrogen, 26140), 1× PenStrep (Gibco, 15140), and 10% (v/v) Shh-N-conditioned medium for 44 hrs. The cells were lysed with lysis buffer (50 μL/well) containing 50 mM Tris-HCl, pH 9.5, 150 mM NaCl, 50 mM MgCl2, and 1% (v/v) Triton X-100. 10 μL of the obtained lysate were analyzed for alkaline phosphatase activities using CDP-Star Substrate (Applied Biosystems, T2146) reagent (50 μL/well) on a microplate luminometer (Veritas). Biological triplicates were analyzed for each test compounds.
# Gli1 = target: T1, Gli1 (Homo sapiens, UniProt P08151); experiment: Overexpression of Gli1 in NIH-3T3 cells, firefly luciferase reporter
# T1 construct: expressed in transfected cells; host or cells: NIH-3T3 (mouse fibroblasts)
# T1 sequence (P08151 1-1106): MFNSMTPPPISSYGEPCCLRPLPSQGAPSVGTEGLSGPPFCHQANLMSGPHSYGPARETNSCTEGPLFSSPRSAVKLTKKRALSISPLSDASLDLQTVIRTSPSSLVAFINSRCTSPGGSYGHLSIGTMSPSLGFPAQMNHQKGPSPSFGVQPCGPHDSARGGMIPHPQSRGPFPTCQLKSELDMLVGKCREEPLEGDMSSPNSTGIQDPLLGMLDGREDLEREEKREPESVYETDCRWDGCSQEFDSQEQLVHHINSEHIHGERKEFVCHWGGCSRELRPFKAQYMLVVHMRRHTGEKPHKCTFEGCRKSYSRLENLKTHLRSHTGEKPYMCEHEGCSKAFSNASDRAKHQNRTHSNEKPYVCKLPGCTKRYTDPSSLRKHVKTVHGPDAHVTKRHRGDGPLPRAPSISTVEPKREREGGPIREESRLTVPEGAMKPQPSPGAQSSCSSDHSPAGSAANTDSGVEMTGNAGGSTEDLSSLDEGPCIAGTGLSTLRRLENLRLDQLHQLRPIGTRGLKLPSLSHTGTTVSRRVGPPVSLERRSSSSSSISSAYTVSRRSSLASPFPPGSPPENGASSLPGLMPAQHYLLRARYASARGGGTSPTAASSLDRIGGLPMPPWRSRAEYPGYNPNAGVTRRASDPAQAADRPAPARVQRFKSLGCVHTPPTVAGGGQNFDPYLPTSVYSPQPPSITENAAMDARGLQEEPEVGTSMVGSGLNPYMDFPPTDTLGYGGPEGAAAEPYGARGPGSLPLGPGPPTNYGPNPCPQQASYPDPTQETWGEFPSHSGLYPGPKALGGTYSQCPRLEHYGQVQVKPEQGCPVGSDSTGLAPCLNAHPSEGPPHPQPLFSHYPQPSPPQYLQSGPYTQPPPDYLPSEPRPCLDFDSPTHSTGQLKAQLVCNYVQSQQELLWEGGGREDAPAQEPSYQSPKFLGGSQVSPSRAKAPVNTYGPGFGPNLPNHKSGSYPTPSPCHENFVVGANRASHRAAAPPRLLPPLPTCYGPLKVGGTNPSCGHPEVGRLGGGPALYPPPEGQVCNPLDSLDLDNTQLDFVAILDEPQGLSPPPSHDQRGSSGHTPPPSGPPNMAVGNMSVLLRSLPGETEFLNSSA
# Description: NIH-3T3 cells were obtained from ATCC and cultured in DMEM (Invitrogen, 11965) containing 10% (v/v) calf serum (ATCC, 30-2030), 1 mM sodium pyruvate (Invitrogen, 11360) and 1× PenStrep (Gibco, 15140).
# as §1
# Overexpression of Gli1 or Gli2 in NIH-3T3 cells provides a measure of Gli1- or Gli1/Gli2-induced pathway activity, respectively. NIH 3T3 cells were seeded into a 24-well plate (35,000 cells/well) and cultured for 30 hrs. […] The cells were lysed with passive lysis buffer (200 μL/well), and 10 μL of the obtained lysate were analyzed for firefly and Renilla luciferase activities using Dual-Luciferase Reporter Assay System (Promega, E1960) (50 μL/well of each reagent) on a microplate luminometer (Veritas). Biological triplicates were analyzed for each test compounds.
# Gli2 = Gli2 trafficking assay in NIH 3T3 cells; settings: ShhN treatment
# Description: NIH 3T3 cells were also employed in an assay to quantify Gli2 trafficking NIH-3T3 cells were seeded into 24-well plates containing poly-D-lysine-coated 12-mm glass coverslips (65,000 cells/well) and cultured for 24 hrs. […] Each compound or vehicle treatment was conducted in biological triplicates in the presence or absence of 10% (v/v) ShhN-conditioned medium. The cells were subsequently fixed in PBS containing 4% (v/v) paraformaldehyde for 12 min at room temperature, washed three times with PBS, permeabilized in PBS containing 0.5% (v/v) Triton X-100 for 5 min, and washed again twice in PBS. […] After three PBS washes, the coverslips were mounted onto slides using Prolong Gold Antifade Reagent with DAPI (Invitrogen, P36931). The cells were imaged using a Plan Apochromat 63×/1.4-0.6 oil immersion objective on an upright Leica DM4500B compound microscope. Ciliary Gli2 levels were quantified by determining total pixel intensity within a circular region manually placed at the distal end of each cilium and subtracting background fluorescence in an adjacent region of equivalent size. A total of 30 cilia from three coverslips were analyzed to determine the average ciliary Gli2 level for each experimental condition as a measure of Gli2 trafficking.
structure (smiles),measurement,setting,value
CCOc1ccc(-[n+]2cc(-c3ccc(Br)cc3)n3c2CCCCC3)cc1 [Compound A-1],Effect on Gli3FL phosphorylation,Gli3,Nor did the compound prevent Gli3FL phosphorylation
same,"Effect on Gli3 processing, Gli3FL/Gli3R ratio",Gli3; ShhN stimulation,did not perturb Gli3 processing
same,IC50,"[1]; Osteoblast, C3H10T(½) w/ ShhN",5.2 ± 3.7 µM
same,Differentiation of C3H10T1/2 cells into alkaline-phosphatase-expressing osteoblasts,[1]; ShhN-conditioned medium,blocked
same,Exogenous Gli1 activity,Gli1,potently blocked
same,Effect on ShhN-induced Gli2 accrual at the ciliary distal tip,Gli2,did not inhibit this process
